These are literature values, as cited in patent publication US20130237476A1, “ADIPOSE TISSUE TARGETED PEPTIDES” (ABLARIS THERAPEUTICS INC., priority 2012, published 2013).

For data set [1] the following is noted: diastereomeric peptide with 5th and 9th residues as L-analogs; comparator not stated.
The test system of the next data set is prohibitin. The conditions noted are these: Kolonin et al., Nat Med 2004; prohibitin expressed in adipose tissue.
In data set [2] the test system is visceral adipose tissue (white fat).

Where no end group is shown, it is not given here. [ ]: non-standard residue; d: D form. Ex = not defined here

Regarding “D,L-(KExAKExAK)2 (K[Ex]AK[Ex]AKK[Ex]AK[Ex]AK; reading uncertain; also: D/L diastereomeric residues, positions not given here) [diasteriomeric peptide in which the 5th and 9th residues were replaced with L-analogs to disrupt alpha helicity]”, the hemolytic activity result in data set [1] is reported as “greatly reduced”.

In the case of CKGGRAKDC [adipose targeting peptide], the association with prohibitin entry in the data set with prohibitin is recorded as “associates with prohibitin”.

On to “CKGGRAKDC-GG-D(KLAKLAKKLAKLAK) (CKGGRAKDCGG[dK][dL][dA][dK][dL][dA][dK][dK][dL][dA][dK][dL][dA][dK]; cysteine pairing not given here) [ABL-1, targeting peptide operably linked to an apoptotic therapeutic peptide]”, for which the obesity reversal entry in data set [2] (animal models, after resorption of established white fat) was “rapid obesity reversal”. Besides, in data set [2] (targets prohibitin in adipose vascular endothelial cells), the “ablation of visceral adipose tissue” value is listed as “cause ablation of visceral adipose tissue”.
